Measured values taken from patent US7732493B2, “2-substituted D-homo-estra-1,3,5(10)-trienes as inhibitors of 17β-hydroxy steroid dehydrogenase type 1” (Bayer Schering Pharma Aktiengesellschaft, priority 2004, dated 2010).

These compounds were tested against T1, human 17β-hydroxy steroid dehydrogenase type 1 (17β-HSD1) (Homo sapiens, UniProt P14061) (assay: Inhibition of the activity of human 17β-hydroxy steroid dehydrogenase type 1 (3H-labeled substrate conversion, HPLC)). Conditions: human enzyme over-expressed in E. coli, bacterial suspension, 37° C., double determination; read-out: 17βHSD1 IC50.
T1 construct: made in house; host or cells: E. coli
T1 sequence (P14061 1-328): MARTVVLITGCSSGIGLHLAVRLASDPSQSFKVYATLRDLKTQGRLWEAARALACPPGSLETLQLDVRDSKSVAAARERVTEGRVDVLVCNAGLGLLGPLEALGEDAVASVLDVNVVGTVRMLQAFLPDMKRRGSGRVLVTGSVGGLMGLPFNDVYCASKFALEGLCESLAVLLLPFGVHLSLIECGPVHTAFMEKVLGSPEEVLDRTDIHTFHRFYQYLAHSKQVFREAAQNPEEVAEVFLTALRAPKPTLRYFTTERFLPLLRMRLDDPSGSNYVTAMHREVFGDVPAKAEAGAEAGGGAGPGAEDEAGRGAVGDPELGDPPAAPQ
Assay type: biochemical
Description: The test process is well described in the literature [Adamski, J., Sierralta, W. D., Jungblut, P. W., Acta Endocrinol (Copenh.) 121(2) (1989), 161-7] and is depicted below.
Human 17β-hydroxy steroid dehydrogenases (17β-HSDs) are over-expressed in E. coli bacteria as His-Tag proteins or as GST-fusion proteins. The suspensions of the bacterial pellets in isotonic common salt solution are used for the determination of enzyme activities of the 17β-HSDs or for the study of their influence by potential inhibitors (estrogen derivatives).
The measurements are made in double determination and, if necessary, at various concentrations of potential inhibitors (e.g., in determining the IC50 values). In addition to the target enzyme 17β-HSD1, other steroid-metabolizing enzymes are included in the test to study cross reactivities of estrogen derivatives.
The incubation of the samples is carried out at 37° C. in a water bath while being shaken, such that in the control (without substances to be tested), a conversion of about 30% is achieved.
The separation of radiolabeled substrate and product is then carried out, after extraction with 1 ml of reversed phase-(RP-18)-cartridges, by means of HPLC on an RP18 column with acetonitrile:water 1:1 (v/v) as a mobile phase. The radioactivity is detected with the aid of a flow-scintillation counter.
The evaluation of the substrate conversion with and without substances to be tested is performed by the integration of the substrate and product peaks. The conversion of the control is normalized to 100% conversion.

| IC50 [nM] | Compound |
| --- | --- |
| 52 | 2-Bromo-17a-oxo-17a-homoestra-1,3,5(10)-trien-3-ol [Example 3] |
| 52 | 2-Iodo-17a-oxo-17a-homoestra-1,3,5(10)-trien-3-ol [Example 4] |
| 85 | COc1cc2c(cc1O)CC[C@@H]1[C@@H]2CC[C@]2(C)C(=O)CCC[C@@H]12 [Example 1, 2-Methoxy-17a-oxo-17a-homoestra-1,3,5(10)-trien-3-ol] |
| 24 | C=CCc1cc2c(cc1O)CC[C@@H]1[C@@H]2CC[C@]2(C)C(=O)CCC[C@@H]12 [Example 7, 2-Allyl-17a-oxo-17a-homoestra-1,3,5(10)-trien-3-ol] |
